# Reference: US11203578B2, “Oxadiazole derivatives for the treatment of genetic diseases due to nonsense mutations” (UNIVERSITA' DEGLI STUDI DIPALERMO, priority 2017, dated 2021)
# Where two headings read alike, the source gives them in different places.
# Legend:
# [1] = tested on: pFLuc-opal (UGA stop mutation); settings: luciferase activity known data, converted to pFLUC (−log FLUC); literature [1], [2]; cited from earlier work
# [2] = tested on: pFLuc-opal (UGA stop mutation); assay: FLuc cell-based readthrough assay in HeLa FLuc-opal transfected cells; parameters: key to Pharm Set: Active: as active, compounds with FLUC values >4.52 (ATALUREN FLUC value); Inactive: as inactives, compounds with FLUC values ≤4.00; Moderate: as moderate actives, compounds with 4.39≤FLUC values ≤4,51; settings: for Pharm Set: class of activity related to the FLUC values
# Text: The results disclosed in (Pibiri I., Lentini L., Tutone M., Melfi R., Pace A., Di Leonardo A. Exploring the readthrough of nonsense mutations by non-acidic Ataluren analogues selected by ligand-based virtual screening. Eur. J. Med. Chem. 122 (2016) 429-435) have been refined with 3D-QSAR (quantitative structure-activity relationships) pharmacophore modelling. The endpoint to build QSAR models was the luciferase activity known data. These values were converted to pFLUC (−log FLUC) values. In order to find the common pharmacophore hypothesis, we divided the 24 compounds in three different classes of activity related to the FLUC values (Pharm set). We considered as active, compounds with FLUC values >4.52 (ATALUREN FLUC value), as inactives, compounds with FLUC values ≤4.00, and as moderate actives, compounds with 4.39≤FLUC values ≤4,51. Dataset was randomly split into a training set (19 compounds) for models generation, and test set (5 compounds) for the validation of developed models, as reported in Table 1.
# To ascertain the effectiveness of the newly synthesized ataluren analogues in promoting the readthrough of premature termination codons was used the FLuc cell-based assay. To this aim HeLa cells were transfected transiently with the plasmids pFLuc-wild type (control) and pFLuc-opal (UGA stop mutation) (NIH Chemical Genomics Center, National Institutes of Health, Bethesda, USA). FLuc gene expression was then measured by luminescence.
SMILES,RLU values Exp. [1],Pharm Set [2],"RLU values Exp. ([2]; luciferase activity converted to pFLUC, [3] unpublished data)"
"Cc1cccc(-c2nc(-c3cccnc3)no2)c1 [Compound 17-NV1879, 3-(3′-pyridyl)-5-(3′-toluyl)-1,2,4-oxadiazole]",4.411,"Moderate (as moderate actives, compounds with 4.39≤FLUC values ≤4,51)",
"COC(=O)c1cccc(-c2noc(-c3cccc(F)c3F)n2)c1 [Compound 8-NV1170, Methyl 3-(5-(2,3-difluorophenyl)-1,2,4-oxadiazol-3-yl)ben zoate)]",4.311,"Moderate (as moderate actives, compounds with 4.39≤FLUC values ≤4,51)",
"Cc1cccc(-c2noc(-c3ccccc3F)n2)c1 [Compound 12-NV1798, 3-Toluyl, 5-(2-fluorophenyl)-1,2,4-oxadiazole]",4.178,Inactive,
"COC(=O)c1cccc(-c2noc(-c3ccc(F)cc3F)n2)c1 [Compound 10-NV1171, Methyl 3-(5-(2,4-difluorophenyl)-1,2,4-oxadiazol-3-yl)ben-zoate)]",4.439,"Moderate (as moderate actives, compounds with 4.39≤FLUC values ≤4,51)",
"O=C(O)c1cccc(-c2noc(-c3c(F)c(F)c(F)c(F)c3F)n2)c1 [Compound 14-NV1954, 3-(5-(Perfluorophenyl)-1,2,4-oxadiazol-3-yl)benzoic acid]",4.171,Inactive,
COC(=O)c1cccc(-c2noc(-c3ccccc3F)n2)c1 [Compound 1-NV1103],4.532,Active,
"COc1cccc(C(=O)c2nc(-c3ccncc3)no2)c1 [Compound 22-NV1919, 3-(4′-pyridyl)-5-(3′-anisoyl)-1,2,4-oxadiazole]",4.253,"Moderate (as moderate actives, compounds with 4.39≤FLUC values ≤4,51)",
COC(=O)c1cccc(-c2noc(-c3ccc(F)cc3)n2)c1 [Compound 6-NV1153],4.125,Inactive,
"COc1cccc(C(=O)c2nc(-c3ccccn3)no2)c1 [Compound 23-NV1940, 3-(2-pyridyl)-5-(3′-anisoyl)-1,2,4-oxadiazole]",4.000,Inactive,
"Cc1cccc(-c2nc(-c3ccccn3)no2)c1 [Compound 21-NV1898, 3-(2-pyridyl)-5-(3′-toluyl)-1,2,4-oxadiazole]",4.551,Active,
COC(=O)c1cccc(-c2noc(-c3c(F)c(F)c(F)c(F)c3F)n2)c1 [Compound 13-NV1951],4.008,Inactive,
"O=C(O)c1cccc(-c2noc(-c3cc(F)c(F)cc3F)n2)c1 [Compound 5-NV1173, 3-(5-(2,4,5-Trifluorophenyl)-1,2,4-oxadiazol-3-yl)benzoic acid]",4.788,Active,
"Cc1cccc(-c2nc(-c3ccccc3)no2)c1 [Compound 18-NV1883, 3-(3′-phenyl)-5-(3′-toluyl)-1,2,4-oxadiazole]",4.428,"Moderate (as moderate actives, compounds with 4.39≤FLUC values ≤4,51)",
"Cc1cccc(-c2noc(-c3ccccc3C)n2)c1 [Compound 19-NV1894, 3-(3-toluyl), 5-(2-toluyl)-1,2,4-oxadiazole]",4.250,"Moderate (as moderate actives, compounds with 4.39≤FLUC values ≤4,51)",
"Cc1cccc(-c2noc(-c3cccc(C)c3)n2)c1 [Compound 20-NV1905, 3-(3-toluyl), 5-(3-toluyl)-1,2,4-oxadiazole]",,Inactive,4.181
"Cc1cccc(-c2nc(-c3ccncc3)no2)c1 [Compound 16-NV1861, 3-(4′-pyridyl)-5-(3′-toluyl)-1,2,4-oxadiazole]",4.250,"Moderate (as moderate actives, compounds with 4.39≤FLUC values ≤4,51)",
"N#Cc1cccc(-c2nc(-c3ccccn3)no2)c1 [Compound 15-NV1859, 3-(2′-pyridyl)-5-(3′-cyanophenyl)-1,2,4-oxadiazole]",4.363,"Moderate (as moderate actives, compounds with 4.39≤FLUC values ≤4,51)",
